“Also recorded” adds a separate entry of the source.
Legend:
[1] = molecular target: KDR (Homo sapiens, UniProt P35968); assay: Inhibition of receptor tyrosine kinase activity at molecular level (ELISA, Poly(Glu,Tyr)4:1 substrate phosphorylation); assay type: biochemical; details: 10 nM compound; average of two independent experiments
Experimental: (§1) Enzyme reaction substrate Poly(Glu, Tyr)4:1 was diluted with potassium-free PBS (10 mM sodium phosphate buffer, 150 mM NaCl, pH 7.2-7.4) to 20 μg/mL. […] The reaction was conducted under 37° C. for 12-16 hours. After the liquid was removed from the wells, the plate was washed three times with 200 μL/well of T-PBS (PBS containing 0.1% Tween-20), each for 5 minutes. The enzyme plate was dried in 37° C. dryer for 1-2 hours.
(§2) 50 μL ATP solution diluted with buffer (50 mM HEPES pH 7.4, 50 mM MgCl2, 0.5 mM MnCl2, 0.2 mM Na3VO4, 1 mM DTT) to a final concentration of 5 μM was added into each well. The compound was diluted with DMSO to a suitable concentration (1 μL/well) or the well contained the corresponding concentration of DMSO (negative control well) Then various kinase recombinant proteins diluted with 49 μL of reaction buffer was added to initiate the reaction. Each experiment required duplicate enzyme-free control well. The reaction was carried out for 1 hour on a 37° C. Shaker (100 rpm). The plate was washed three times with T-PBS. A dilution of the primary antibody PY99 was added (100 μL/well), and the reaction was conducted in a shaker at 37° C. for 0.5 hr. The plate was washed three times with T-PBS. A dilution of the horseradish peroxidase-labeled goat anti-mouse IgG secondary antibody was added (100 μL/well), and the reaction was conducted in a shaker at 37° C. for 0.5 hour. Plate was washed with T-PBS for three times. 2 mg/mL OPD coloration solution (diluted with 0.1 M citric acid-sodium citrate buffer containing 0.03% H2O2 (pH=5.4)) was added (100 μL/well), reacted for 1-10 minutes at 25° C. in dark. The reaction was quenched with 2M H2SO4 (50 μL/well), and read at 490 nm using a tunable microplate reader SPECTRA MAX 190.
(§3) The inhibition ratio of the sample was determined by the following formula: […]
(§4) The IC50 values were obtained via four-parameter regression analysis using the software supplied with the microplate reader.

[2] = molecular target: FGFR1 (Homo sapiens, UniProt P11362); assay: as above; assay type: biochemical; details: 10 nM compound; average of two independent experiments
Experimental: as §1, §2, §3, §4

[3] = molecular target: RET (Homo sapiens, UniProt P07949); assay: as above; assay type: biochemical; details: 10 nM compound; average of two independent experiments
Experimental: as §1, §2, §3, §4

[4] = system: human gastric cancer SNU-16 xenografts; assay: Growth of subcutaneous xenografts of human gastric cancer SNU-16 in nude mice (comparative compounds study); details: for Weight (g, mean ± SD): SNU-16 tumor-bearing mice
Experimental: The tumor tissue in the vigorous growth period was cut into 1.5 mm^3, and inoculated subcutaneously in the right axilla of nude mice under aseptic conditions. The diameter of the xenograft in nude mice was measured with a vernier caliper. The animals were randomly divided into groups when the average tumor volume was grown to about 190 mm^3. […] The diameter of the xenograft was measured twice a week during the entire experiment, and the body weight of the mice was weighed. The tumor volume (TV) was calculated as: TV=½×a×b^2, where a and b represented length and width, respectively. The relative tumor volume (RTV) was calculated based on the measured results, and the formula was: RTV=Vt/V0, wherein V0 represented the tumor volume obtained when the mice was divided and administered (i.e., d0), and Vt represented the tumor volume at each measurement. The anti-tumor activity evaluation index was the relative tumor proliferation rate T/C (%), and the calculation formula was as follows: T/C (%)=(TRTV/CRTV)×100%, wherein TRTV was TRV in treatment group; and CRTV was RTV in negative control group.

FGFR1, sequence (P11362 22-822): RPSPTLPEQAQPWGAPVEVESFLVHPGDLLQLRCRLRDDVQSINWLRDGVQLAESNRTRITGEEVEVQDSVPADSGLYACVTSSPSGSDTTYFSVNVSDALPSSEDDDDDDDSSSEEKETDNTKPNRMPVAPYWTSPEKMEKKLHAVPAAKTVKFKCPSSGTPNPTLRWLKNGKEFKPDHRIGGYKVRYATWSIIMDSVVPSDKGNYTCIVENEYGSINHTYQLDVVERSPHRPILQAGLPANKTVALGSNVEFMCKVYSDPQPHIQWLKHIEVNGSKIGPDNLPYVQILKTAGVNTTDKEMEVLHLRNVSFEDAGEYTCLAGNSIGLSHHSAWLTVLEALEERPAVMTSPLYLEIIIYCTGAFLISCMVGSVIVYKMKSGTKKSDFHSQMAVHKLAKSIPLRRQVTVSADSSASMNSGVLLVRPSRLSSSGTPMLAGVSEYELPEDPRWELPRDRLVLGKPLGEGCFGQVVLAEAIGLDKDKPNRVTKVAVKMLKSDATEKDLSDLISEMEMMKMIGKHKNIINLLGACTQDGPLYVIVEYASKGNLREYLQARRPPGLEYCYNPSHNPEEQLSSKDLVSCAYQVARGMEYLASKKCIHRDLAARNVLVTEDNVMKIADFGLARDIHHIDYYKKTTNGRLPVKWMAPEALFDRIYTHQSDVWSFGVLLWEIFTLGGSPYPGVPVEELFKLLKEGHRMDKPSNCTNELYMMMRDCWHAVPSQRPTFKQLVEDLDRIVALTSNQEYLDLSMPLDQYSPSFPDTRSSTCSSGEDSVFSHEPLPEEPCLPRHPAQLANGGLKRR
KDR, sequence (P35968 20-1356): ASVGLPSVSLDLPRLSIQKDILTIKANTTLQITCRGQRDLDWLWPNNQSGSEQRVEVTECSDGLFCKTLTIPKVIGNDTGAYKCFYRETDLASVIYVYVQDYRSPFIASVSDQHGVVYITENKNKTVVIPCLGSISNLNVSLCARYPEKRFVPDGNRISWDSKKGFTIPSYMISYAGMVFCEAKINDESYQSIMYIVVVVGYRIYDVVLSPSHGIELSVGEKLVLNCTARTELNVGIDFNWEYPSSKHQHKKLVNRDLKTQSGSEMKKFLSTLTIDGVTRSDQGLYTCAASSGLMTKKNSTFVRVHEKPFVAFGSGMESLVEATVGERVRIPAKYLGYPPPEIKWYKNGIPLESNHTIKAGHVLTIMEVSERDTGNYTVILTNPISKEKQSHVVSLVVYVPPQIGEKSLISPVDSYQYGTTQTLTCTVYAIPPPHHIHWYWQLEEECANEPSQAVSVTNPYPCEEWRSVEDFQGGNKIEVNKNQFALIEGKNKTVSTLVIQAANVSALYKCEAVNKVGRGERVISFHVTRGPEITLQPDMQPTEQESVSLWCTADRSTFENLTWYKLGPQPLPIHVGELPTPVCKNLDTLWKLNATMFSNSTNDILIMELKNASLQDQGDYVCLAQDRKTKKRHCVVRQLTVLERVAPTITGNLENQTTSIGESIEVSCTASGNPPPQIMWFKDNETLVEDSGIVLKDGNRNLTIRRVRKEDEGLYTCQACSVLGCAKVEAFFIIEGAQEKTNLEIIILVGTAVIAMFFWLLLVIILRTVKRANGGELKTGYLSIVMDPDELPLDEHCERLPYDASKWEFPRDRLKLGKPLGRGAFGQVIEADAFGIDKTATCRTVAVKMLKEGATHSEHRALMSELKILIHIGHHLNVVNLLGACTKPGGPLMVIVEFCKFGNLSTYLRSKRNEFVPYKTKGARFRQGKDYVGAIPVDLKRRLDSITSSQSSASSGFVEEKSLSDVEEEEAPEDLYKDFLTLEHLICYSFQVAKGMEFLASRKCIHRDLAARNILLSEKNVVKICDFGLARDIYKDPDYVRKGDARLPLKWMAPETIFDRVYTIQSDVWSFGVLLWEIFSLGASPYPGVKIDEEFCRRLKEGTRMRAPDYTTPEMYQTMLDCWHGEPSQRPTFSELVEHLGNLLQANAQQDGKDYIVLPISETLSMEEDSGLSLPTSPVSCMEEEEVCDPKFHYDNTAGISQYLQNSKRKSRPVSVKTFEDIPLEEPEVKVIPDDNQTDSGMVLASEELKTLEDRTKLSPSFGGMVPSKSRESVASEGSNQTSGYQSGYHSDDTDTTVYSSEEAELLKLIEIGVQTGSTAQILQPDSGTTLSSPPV
RET, sequence (P07949 29-1114): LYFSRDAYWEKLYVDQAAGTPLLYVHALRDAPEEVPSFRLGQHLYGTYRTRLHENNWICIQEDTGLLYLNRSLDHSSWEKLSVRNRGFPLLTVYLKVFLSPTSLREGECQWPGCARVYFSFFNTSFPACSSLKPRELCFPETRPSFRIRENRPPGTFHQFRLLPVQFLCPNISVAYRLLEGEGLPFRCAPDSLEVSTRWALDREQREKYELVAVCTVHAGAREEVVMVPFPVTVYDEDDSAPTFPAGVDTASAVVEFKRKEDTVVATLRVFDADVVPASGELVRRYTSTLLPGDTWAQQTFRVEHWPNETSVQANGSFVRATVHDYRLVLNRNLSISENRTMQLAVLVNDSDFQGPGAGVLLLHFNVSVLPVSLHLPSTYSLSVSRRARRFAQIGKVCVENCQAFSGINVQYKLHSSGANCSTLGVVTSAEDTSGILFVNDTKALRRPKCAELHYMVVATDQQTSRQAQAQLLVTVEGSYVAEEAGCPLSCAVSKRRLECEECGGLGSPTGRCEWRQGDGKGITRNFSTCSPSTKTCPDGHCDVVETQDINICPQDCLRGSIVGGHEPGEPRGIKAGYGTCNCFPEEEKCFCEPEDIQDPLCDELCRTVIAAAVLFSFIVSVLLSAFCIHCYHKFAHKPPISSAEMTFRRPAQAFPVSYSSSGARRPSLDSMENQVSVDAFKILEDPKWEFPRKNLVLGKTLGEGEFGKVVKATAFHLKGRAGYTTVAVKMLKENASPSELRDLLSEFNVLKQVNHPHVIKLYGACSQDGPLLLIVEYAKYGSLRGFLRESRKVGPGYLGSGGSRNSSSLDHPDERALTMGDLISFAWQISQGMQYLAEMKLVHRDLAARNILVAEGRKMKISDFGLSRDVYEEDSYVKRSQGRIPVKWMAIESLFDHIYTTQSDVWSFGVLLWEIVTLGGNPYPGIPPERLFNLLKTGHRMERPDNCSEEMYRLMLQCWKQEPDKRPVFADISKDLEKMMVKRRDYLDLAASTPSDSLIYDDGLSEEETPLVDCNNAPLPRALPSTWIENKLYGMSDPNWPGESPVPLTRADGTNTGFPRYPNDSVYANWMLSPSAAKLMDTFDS

## CN1CCN(Cc2ccc(NC(=O)c3ccc(Cl)c(C#Cc4cc(Cl)cnc4N)c3)cc2C(F)(F)F)CC1 [Example 17]
[1]
  10 nM inhibition ratio KDR: 25.0
[2]
  10 nM inhibition ratio FGFR1: 68.0
[3]
  10 nM inhibition ratio RET: 73.3

## Cc1ccc(C#Cc2cccnc2N)cc1C(=O)Nc1ccc(CN2CCN(C)CC2)c(C(F)(F)F)c1 [Example 14]
[1]
  10 nM inhibition ratio KDR: 20.3
[2]
  10 nM inhibition ratio FGFR1: 46.1
[3]
  10 nM inhibition ratio RET: 57.6

## CN1CCN(Cc2ccc(NC(=O)c3ccc(Cl)c(C#Cc4cc(C(F)(F)F)cnc4N)c3)cc2C(F)(F)F)CC1 [Example 20]
[1]
  10 nM inhibition ratio KDR: 23.4
[2]
  10 nM inhibition ratio FGFR1: 71.1
[3]
  10 nM inhibition ratio RET: 70.8

## CN1CCN(Cc2ccc(NC(=O)c3ccc(Cl)c(C#Cc4cc(OC5COC5)cnc4N)c3)cc2C(F)(F)F)CC1 [Example 25]
[1]
  10 nM inhibition ratio KDR: 33.2
[2]
  10 nM inhibition ratio FGFR1: 54.5
[3]
  10 nM inhibition ratio RET: 49.9

## CN1CCN(Cc2ccc(NC(=O)c3ccc(Cl)c(C#Cc4cc(COC(F)(F)F)cnc4N)c3)cc2C(F)(F)F)CC1 [Example 32]
[1]
  10 nM inhibition ratio KDR: 37.2
[2]
  10 nM inhibition ratio FGFR1: 66.3
[3]
  10 nM inhibition ratio RET: 70.8

## CNc1cnc(N)c(C#Cc2cc(C(=O)Nc3ccc(CN4CCN(C)CC4)c(C(F)(F)F)c3)ccc2Cl)c1 [Example 35]
[1]
  10 nM inhibition ratio KDR: 32.1
[2]
  10 nM inhibition ratio FGFR1: 57.9
[3]
  10 nM inhibition ratio RET: 44.3

## COc1ccc(C#Cc2cccnc2N)cc1C(=O)Nc1ccc(CN2CCN(C)CC2)c(C(F)(F)F)c1 [Example 15]
[1]
  10 nM inhibition ratio KDR: 15.4
[2]
  10 nM inhibition ratio FGFR1: 59.9
[3]
  10 nM inhibition ratio RET: 61.2

## CN1CCN(Cc2ccc(NC(=O)c3cccc(C#Cc4nc(CO)cnc4N)c3)cc2C(F)(F)F)CC1 [Example 48]
[1]
  10 nM inhibition ratio KDR: 34.3
[2]
  10 nM inhibition ratio FGFR1: 48.7
[3]
  10 nM inhibition ratio RET: 78.0

## COc1cnc(N)c(C#Cc2cc(C(=O)Nc3ccc(CN4CCN(C)CC4)c(C(F)(F)F)c3)ccc2Cl)c1 [Example 22]
[1]
  10 nM inhibition ratio KDR: 24.9
[2]
  10 nM inhibition ratio FGFR1: 75.1
[3]
  10 nM inhibition ratio RET: 59.3

## CN1CCN(Cc2ccc(NC(=O)c3ccc(Cl)c(C#Cc4c(F)ccnc4N)c3)cc2C(F)(F)F)CC1 [Example 49]
[1]
  10 nM inhibition ratio KDR: 33.2
[2]
  10 nM inhibition ratio FGFR1: 77.1
[3]
  10 nM inhibition ratio RET: 69.5

## CNCCOc1cnc(N)c(C#Cc2cc(C(=O)Nc3ccc(CN4CCN(C)CC4)c(C(F)(F)F)c3)ccc2Cl)c1 [Example 28]
[1]
  10 nM inhibition ratio KDR: 28.7
[2]
  10 nM inhibition ratio FGFR1: 68.5
[3]
  10 nM inhibition ratio RET: 79.3

## CN1CCN(Cc2ccc(NC(=O)c3ccc(Cl)c(C#Cc4cc(C5CC5)cnc4N)c3)cc2C(F)(F)F)CC1 [Example 19]
[1]
  10 nM inhibition ratio KDR: 13.2
[2]
  10 nM inhibition ratio FGFR1: 59.3
[3]
  10 nM inhibition ratio RET: 69.4

## C=CC(=O)Nc1cnc(N)c(C#Cc2cc(C(=O)Nc3ccc(CN4CCN(C)CC4)c(C(F)(F)F)c3)ccc2Cl)c1 [Example 39]
[1]
  10 nM inhibition ratio KDR: 36.4
[2]
  10 nM inhibition ratio FGFR1: 53.4
[3]
  10 nM inhibition ratio RET: 88.0

## CN1CCN(Cc2ccc(NC(=O)c3ccc(Cl)c(C#Cc4nccnc4N)c3)cc2C(F)(F)F)CC1 [Example 46]
[1]
  10 nM inhibition ratio KDR: 43.1
[2]
  10 nM inhibition ratio FGFR1: 48.5
[3]
  10 nM inhibition ratio RET: 95.1

## CC(C)(C)OC(=O)N1CCN(Cc2ccc(NC(=O)c3ccc(Cl)c(C#Cc4cccnc4N)c3)cc2C(F)(F)F)CC1 [Example 50]
[1]
  10 nM inhibition ratio KDR: 27.8
[2]
  10 nM inhibition ratio FGFR1: 56.3
[3]
  10 nM inhibition ratio RET: 55.1

## COCCOc1cnc(N)c(C#Cc2cc(C(=O)Nc3ccc(CN4CCN(C)CC4)c(C(F)(F)F)c3)ccc2Cl)c1 [Example 27]
[1]
  10 nM inhibition ratio KDR: 34.1
[2]
  10 nM inhibition ratio FGFR1: 78.2
[3]
  10 nM inhibition ratio RET: 69.5

## CN(C)CC=CC(=O)Nc1cnc(N)c(C#Cc2cc(C(=O)Nc3ccc(CN4CCN(C)CC4)c(C(F)(F)F)c3)ccc2Cl)c1 [Example 40]
[1]
  10 nM inhibition ratio KDR: 36.6
[2]
  10 nM inhibition ratio FGFR1: 58.2
[3]
  10 nM inhibition ratio RET: 77.3

## CN1CCN(Cc2ccc(NC(=O)c3cc(C#Cc4cccnc4N)cc(C(F)(F)F)c3)cc2C(F)(F)F)CC1 [Example 10]
[1]
  10 nM inhibition ratio KDR: 34.5
[2]
  10 nM inhibition ratio FGFR1: 36
[3]
  10 nM inhibition ratio RET: 63.4

## CN1CCN(Cc2ccc(NC(=O)c3ccc(Cl)c(C#Cc4cc(CO)cnc4N)c3)cc2C(F)(F)F)CC1 [Example 30]
[1]
  10 nM inhibition ratio KDR: 5.8
[2]
  10 nM inhibition ratio FGFR1: 55.2
[3]
  10 nM inhibition ratio RET: 77.8

## CNc1cncc(C#Cc2cc(C(=O)Nc3ccc(CN4CCN(C)CC4)c(C(F)(F)F)c3)ccc2C)c1 [Example A34, reference compound]
[1]
  10 nM inhibition ratio KDR: 39.5
[2]
  10 nM inhibition ratio FGFR1: 33.2
[3]
  10 nM inhibition ratio RET: 16.4

## CN1CCN(Cc2ccc(NC(=O)c3ccc(Cl)c(C#Cc4cncc(N5CCOCC5)c4)c3)cc2C(F)(F)F)CC1 [HuFGFR1-113]
[4]; SNU-16, 20 mg/kg group
  animal deaths: one mouse died on day 20
[4]; SNU-16, 20 mg/kg orally once a day, d0
  Relative tumor volume RTV (mean ± SD): 1.00 ± 0.00
[4]; SNU-16, 20 mg/kg orally once a day, d3
  Relative tumor volume RTV (mean ± SD): 1.12 ± 0.03
[4]; SNU-16, 20 mg/kg orally once a day, d7
  Relative tumor volume RTV (mean ± SD): 0.64 ± 0.23
[4]; SNU-16, 20 mg/kg orally once a day, d10
  Relative tumor volume RTV (mean ± SD): 0.54 ± 0.22
[4]; SNU-16, 20 mg/kg orally once a day, d14
  Relative tumor volume RTV (mean ± SD): 0.92 ± 0.17
[4]; SNU-16, 20 mg/kg orally once a day, d17
  Relative tumor volume RTV (mean ± SD): 1.18 ± 0.42
[4]; SNU-16, 20 mg/kg orally once a day, d21
  Relative tumor volume RTV (mean ± SD): 1.35 ± 0.15
[4]; SNU-16, 20 mg/kg orally once a day, day 21
  relative tumor proliferation rate T/C: 23.30%
[4]; SNU-16, 100 mg/kg group
  animal deaths: One mouse died on the third day; also recorded: Two mice died on the fifth day
  toxicity / condition of the mice (in words): significant toxicity
[4]; SNU-16, 100 mg/kg orally once a day (administration interrupted), d0
  Relative tumor volume RTV (mean ± SD): 1.00 ± 0.00
[4]; SNU-16, 100 mg/kg orally once a day (administration interrupted), d3
  Relative tumor volume RTV (mean ± SD): 1.32 ± 0.40
[4]; SNU-16, 100 mg/kg orally once a day (administration interrupted), d7
  Relative tumor volume RTV (mean ± SD): 0.58 ± 0.02
[4]; SNU-16, 100 mg/kg orally once a day (administration interrupted), d10
  Relative tumor volume RTV (mean ± SD): 0.60 ± 0.02
[4]; SNU-16, 100 mg/kg orally once a day (administration interrupted), d14
  Relative tumor volume RTV (mean ± SD): 0.58 ± 0.35
[4]; SNU-16, 100 mg/kg orally once a day (administration interrupted), d17
  Relative tumor volume RTV (mean ± SD): 1.16 ± 0.86
[4]; SNU-16, 100 mg/kg orally once a day (administration interrupted), d21
  Relative tumor volume RTV (mean ± SD): 1.52 ± /
[4]; SNU-16, HuFGFR1-113 at 20 mg/kg, HuFGFR1-117 dose not stated
  weight of the tumor-bearing mice (in words): decreased significantly
[4]; 20 mg/kg orally once a day, d0
  Weight (g, mean ± SD): 23.2 ± 1.8 g
[4]; 20 mg/kg orally once a day, d3
  Weight (g, mean ± SD): 24.0 ± 1.5 g
[4]; 20 mg/kg orally once a day, d7
  Weight (g, mean ± SD): 22.4 ± 1.8 g
[4]; 20 mg/kg orally once a day, d10
  Weight (g, mean ± SD): 20.2 ± 1.9 g
[4]; 20 mg/kg orally once a day, d14
  Weight (g, mean ± SD): 19.7 ± 2.9 g
[4]; 20 mg/kg orally once a day, d17
  Weight (g, mean ± SD): 20.1 ± 3.7 g
[4]; 20 mg/kg orally once a day, d21
  Weight (g, mean ± SD): 20.3 ± 1.6 g
[4]; 100 mg/kg orally once a day (administration interrupted), d0
  Weight (g, mean ± SD): 23.4 ± 2.7 g
[4]; 100 mg/kg orally once a day (administration interrupted), d3
  Weight (g, mean ± SD): 23.1 ± 2.0 g
[4]; 100 mg/kg orally once a day (administration interrupted), d7
  Weight (g, mean ± SD): 20.7 ± 0.1 g
[4]; 100 mg/kg orally once a day (administration interrupted), d10
  Weight (g, mean ± SD): 22.1 ± 0.4 g
[4]; 100 mg/kg orally once a day (administration interrupted), d14
  Weight (g, mean ± SD): 25.4 ± 1.6 g
[4]; 100 mg/kg orally once a day (administration interrupted), d17
  Weight (g, mean ± SD): 25.5 ± 3.0 g
[4]; 100 mg/kg orally once a day (administration interrupted), d21
  Weight (g, mean ± SD): 21.2 ± / g

## Cc1ccc(C(=O)Nc2ccc(CN3CCN(C)CC3)c(C(F)(F)F)c2)cc1C#Cc1cccnc1N [Example 3]
[1]
  10 nM inhibition ratio KDR: 34.7
[2]
  10 nM inhibition ratio FGFR1: 52.4
[3]
  10 nM inhibition ratio RET: 69.1

## COc1cc(C#Cc2cccnc2N)cc(C(=O)Nc2ccc(CN3CCN(C)CC3)c(C(F)(F)F)c2)c1 [Example 13]
[1]
  10 nM inhibition ratio KDR: 15.1
[2]
  10 nM inhibition ratio FGFR1: 70.2
[3]
  10 nM inhibition ratio RET: 64.3
